Test results from PubChem BioAssay AID256 (DTP/NCI, 2004).
Where “and” joins values, the source holds several entries; their conditions need not be identical. Identical values can stand only once. Toxic doses and inconclusive results are not listed. The calls were made as follows: active = survival T/C of 150% or more; inactive = T/C below 125% in these data.

Test system: CD2F1 mice, L1210 leukemia ip, survival T/C
Test: NCI In Vivo Anticancer Drug Screen. Data for tumor model L1210 Leukemia (intraperitoneal) in CD2F1 (CDF1) mice
Conditions: higher = longer survival
How it was run: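 In this screen, transplantable tumors were grown in mice given either the compound or its vehicle. Results were expressed as the treated measurement relative to the control measurement.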

[1] = endpoint: mean survival time, dose: 100.0 mg/kg/injection, schedule: Q04DX003 (ip), vehicle: saline with Tween-80
[2] = endpoint: mean survival time, dose: 200.0 mg/kg/injection, schedule: Q04DX003 (ip), vehicle: saline with Tween-80
[3] = endpoint: mean survival time, dose: 400.0 mg/kg/injection, schedule: Q04DX003 (ip), vehicle: saline with Tween-80
[4] = endpoint: mean survival time, dose: 50.0 mg/kg/injection, schedule: Q01DX009 (ip), vehicle: saline with Tween-80
[5] = endpoint: mean survival time, dose: 100.0 mg/kg/injection, schedule: Q01DX009 (ip), vehicle: saline with Tween-80
[6] = endpoint: mean survival time, dose: 100.0 mg/kg/injection, schedule: Q04DX002 (ip), vehicle: saline with Tween-80
[7] = endpoint: mean survival time, dose: 200.0 mg/kg/injection, schedule: Q04DX002 (ip), vehicle: saline with Tween-80
[8] = endpoint: mean survival time, dose: 200.0 mg/kg/injection, schedule: Q01DX009 (ip), vehicle: saline with Tween-80
[9] = endpoint: mean survival time, dose: 100.0 mg/kg/injection, schedule: Q01DX001 (ip), vehicle: saline with Tween-80
[10] = endpoint: mean survival time, dose: 200.0 mg/kg/injection, schedule: Q01DX001 (ip), vehicle: saline with Tween-80
[11] = endpoint: mean survival time, dose: 50.0 mg/kg/injection, schedule: Q04DX002 (ip), vehicle: saline with Tween-80

Measured: T/C

CCCCCCCCCCCC[Si](CCCCCCCCCCCC)(c1ccccc1)c1ccccc1
inactive: [1] 103 % of control | [2] 93 % of control | [3] 93 % of control

c1ccc2c(c1)OP(OP1Oc3ccccc3O1)O2
inactive: endpoint: mean survival time, dose: 25.0 mg/kg/injection, schedule: Q01DX009 (ip), vehicle: saline with Tween-80 98 % of control | [4] 98 % of control | [5] 107 % of control | endpoint: mean survival time, dose: 100.0 mg/kg/injection, schedule: Q04DX003 (ip), vehicle: acetone 103 % of control

Cc1ccc(S(=O)(=O)Oc2ccc(Br)cc2)cc1
inactive: [6] 96 % of control | [7] 86 % of control

COc1ccc(-c2sc(/N=C/c3ccc(-c4ccccc4)cc3)c(C#N)c2C)cc1OC
inactive: [5] 97 % of control | [8] 100 % of control | endpoint: mean survival time, dose: 400.0 mg/kg/injection, schedule: Q01DX009 (ip), vehicle: saline with Tween-80 91 % of control

C=C(Br)CNC(=O)C(O)(c1ccccc1)c1ccccc1
inactive: [9] 103 % of control | [10] 87 % of control | endpoint: mean survival time, dose: 400.0 mg/kg/injection, schedule: Q01DX001 (ip), vehicle: saline with Tween-80 89 % of control

CCCC(=O)c1cccc([N+](=O)[O-])c1
inactive: endpoint: mean survival time, dose: 100.0 mg/kg/injection, schedule: Q01DX001 (ip), vehicle: other 96 % of control | endpoint: mean survival time, dose: 100.0 mg/kg/injection, schedule: Q04DX002 (ip), vehicle: other 98 % of control | endpoint: mean survival time, dose: 100.0 mg/kg/injection, schedule: Q04DX003 (ip), vehicle: other 103 % of control | endpoint: mean survival time, dose: 200.0 mg/kg/injection, schedule: Q01DX001 (ip), vehicle: other 93 % of control | endpoint: mean survival time, dose: 200.0 mg/kg/injection, schedule: Q04DX002 (ip), vehicle: other 100 % of control | endpoint: mean survival time, dose: 200.0 mg/kg/injection, schedule: Q04DX003 (ip), vehicle: other 100 % of control | endpoint: mean survival time, dose: 400.0 mg/kg/injection, schedule: Q01DX001 (ip), vehicle: other 94 % of control | endpoint: mean survival time, dose: 400.0 mg/kg/injection, schedule: Q04DX002 (ip), vehicle: other 98 % of control | endpoint: mean survival time, dose: 400.0 mg/kg/injection, schedule: Q04DX003 (ip), vehicle: other 101 % of control | endpoint: mean survival time, dose: 800.0 mg/kg/injection, schedule: Q01DX009 (ip), vehicle: other 91 % of control and 94 % of control and 95 % of control

Nc1nc2ccc(CNc3ccc(C(=O)NC(CC(=O)O)C(=O)O)cc3)cc2c(=O)[nH]1 (stereo unspecified)
inactive: endpoint: mean survival time, dose: 66.0 mg/kg/injection, schedule: Q04DX003 (ip), vehicle: saline with Tween-80 105 % of control | [1] 109 % of control | endpoint: mean survival time, dose: 150.0 mg/kg/injection, schedule: Q04DX003 (ip), vehicle: saline with Tween-80 105 % of control

COc1cc(OC)c(NC(=O)Oc2ccccc2F)cc1Cl
inactive: [4] 92 % of control | [5] 100 % of control | [8] 100 % of control

CCOC(=O)/C(C#N)=N/Nc1ccc(Cl)cc1
inactive: [6] 108 % of control | [7] 100 % of control | endpoint: mean survival time, dose: 400.0 mg/kg/injection, schedule: Q04DX002 (ip), vehicle: saline with Tween-80 92 % of control

O=c1nc2n(cc1F)C1OC(CCl)C(O)C1O2 (stereo unspecified)
inactive: endpoint: median survival time, dose: 12.5 mg/kg/injection, schedule: Q01DX005 (ip), vehicle: saline with Tween-80 101 % of control | endpoint: median survival time, dose: 25.0 mg/kg/injection, schedule: Q01DX005 (ip), vehicle: saline with Tween-80 104 % of control | endpoint: median survival time, dose: 50.0 mg/kg/injection, schedule: Q01DX005 (ip), vehicle: saline with Tween-80 97 % of control | endpoint: median survival time, dose: 100.0 mg/kg/injection, schedule: Q01DX005 (ip), vehicle: saline with Tween-80 101 % of control | endpoint: median survival time, dose: 200.0 mg/kg/injection, schedule: Q01DX005 (ip), vehicle: saline with Tween-80 105 % of control

CCCCCCC[CH2][Sn]1([CH2]CCCCCCC)[O]OC(c2ccccc2)[O]1 (stereo unspecified)
inactive: [11] 92 % of control

COC(=O)CSc1nn(C2OC(COC(=O)c3ccccc3)C(OC(=O)c3ccccc3)C2OC(=O)c2ccccc2)c(=O)[nH]c1=O (stereo unspecified)
inactive: endpoint: mean survival time, dose: 12.5 mg/kg/injection, schedule: Q01DX005 (ip), vehicle: distilled water + Tween-80 92 % of control | endpoint: mean survival time, dose: 25.0 mg/kg/injection, schedule: Q01DX005 (ip), vehicle: distilled water + Tween-80 101 % of control | endpoint: mean survival time, dose: 50.0 mg/kg/injection, schedule: Q01DX005 (ip), vehicle: distilled water + Tween-80 93 % of control | endpoint: mean survival time, dose: 100.0 mg/kg/injection, schedule: Q01DX005 (ip), vehicle: distilled water + Tween-80 90 % of control | endpoint: mean survival time, dose: 200.0 mg/kg/injection, schedule: Q01DX005 (ip), vehicle: distilled water + Tween-80 88 % of control

CN[C@H]1CCc2cc(OC)c(OC)c(OC)c2-c2ccc(SC)c(=O)cc21
inactive: endpoint: mean survival time, dose: 12.5 mg/kg/injection, schedule: Q01DX001 (ip), vehicle: Klucel (hydroxypropylcellulose) (HPC) 104 % of control | endpoint: mean survival time, dose: 25.0 mg/kg/injection, schedule: Q01DX001 (ip), vehicle: Klucel (hydroxypropylcellulose) (HPC) 106 % of control | endpoint: mean survival time, dose: 50.0 mg/kg/injection, schedule: Q01DX001 (ip), vehicle: Klucel (hydroxypropylcellulose) (HPC) 102 % of control

COc1cccc2c1C(CO)N1C(C#N)C3CC(C(=O)O)C(C1C2)N3C (stereo unspecified)
inactive: endpoint: median survival time, dose: 3.12 mg/kg/injection, schedule: Q01DX005 (ip), vehicle: saline 112 % of control | endpoint: median survival time, dose: 6.25 mg/kg/injection, schedule: Q01DX005 (ip), vehicle: saline 110 % of control | endpoint: median survival time, dose: 9.0 mg/kg/injection, schedule: Q01DX005 (ip), vehicle: suspension in saline 120 % of control and 111 % of control | endpoint: median survival time, dose: 12.5 mg/kg/injection, schedule: Q01DX005 (ip), vehicle: saline 112 % of control | endpoint: median survival time, dose: 15.0 mg/kg/injection, schedule: Q01DX005 (ip), vehicle: suspension in saline 124 % of control | endpoint: median survival time, dose: 41.67 mg/kg/injection, schedule: Q01DX005 (ip), vehicle: suspension in saline 87 % of control | endpoint: median survival time, dose: 50.0 mg/kg/injection, schedule: Q01DX005 (ip), vehicle: saline 89 % of control

CN(C)c1ccc(Cc2ccc(N(C)C)cc2)cc1
inactive: [1] 96 % of control | [2] 100 % of control | [3] 93 % of control

CC(C)(C[NH-])C[NH-].O=C(O)CC(=O)O.[Pt+2]
inactive: endpoint: median survival time, dose: 0.78 mg/kg/injection, schedule: Q04DX003 (ip), vehicle: water 116 % of control | endpoint: median survival time, dose: 1.56 mg/kg/injection, schedule: Q04DX003 (ip), vehicle: water 113 % of control | endpoint: median survival time, dose: 3.12 mg/kg/injection, schedule: Q04DX003 (ip), vehicle: water 112 % of control | endpoint: median survival time, dose: 3.13 mg/kg/injection, schedule: Q04DX003 (ip), vehicle: distilled water + Tween-80 123 % of control | endpoint: median survival time, dose: 12.5 mg/kg/injection, schedule: Q04DX003 (ip), vehicle: distilled water + Tween-80 116 % of control | endpoint: median survival time, dose: 12.5 mg/kg/injection, schedule: Q04DX003 (ip), vehicle: water 112 % of control | endpoint: median survival time, dose: 25.0 mg/kg/injection, schedule: Q04DX003 (ip), vehicle: distilled water + Tween-80 98 % of control

Nc1nc(N)c2nc(COc3ccc(C(=O)NC(CCC(=O)O)C(=O)O)cc3)ccc2n1 (stereo unspecified)
inactive: endpoint: mean survival time, dose: 15.63 micrograms/kg/injection, schedule: Q01DX005 (ip), vehicle: sodium bicarbonate 103 % of control and 106 % of control | endpoint: mean survival time, dose: 31.25 micrograms/kg/injection, schedule: Q01DX005 (ip), vehicle: sodium bicarbonate 120 % of control and 107 % of control | endpoint: mean survival time, dose: 62.5 micrograms/kg/injection, schedule: Q01DX005 (ip), vehicle: sodium bicarbonate 113 % of control

Nc1nc(N)c(CCCCc2ccc(NC(=O)c3cccc(S(=O)(=O)F)c3)cc2)c(N)n1
inactive: endpoint: mean survival time, dose: 50.0 mg/kg/injection, schedule: Q01DX001 (ip), vehicle: saline with Tween-80 96 % of control | [9] 107 % of control | [10] 100 % of control

C=CC(C)(C)S(=O)[O-].[C-]#[O+].[C-]#[O+].[C-]#[O+].[Mn].[c-]1[c-][c-][cH-][c-]1
inactive: endpoint: mean survival time, dose: 25.0 mg/kg/injection, schedule: Q04DX002 (ip), vehicle: saline with Tween-80 93 % of control | [11] 86 % of control | [6] 93 % of control

CCOC(=O)CSCc1ccc(C(C)(C)C)cc1
inactive: endpoint: mean survival time, dose: 100.0 mg/kg/injection, schedule: Q01DX001 (ip), vehicle: saline 96 % of control | endpoint: mean survival time, dose: 200.0 mg/kg/injection, schedule: Q01DX001 (ip), vehicle: saline 98 % of control | endpoint: mean survival time, dose: 400.0 mg/kg/injection, schedule: Q01DX001 (ip), vehicle: saline 93 % of control

CO[C@H]1[C@H](O)[C@H](O[C@H]2CC[C@@]3(C)[C@H](CC[C@@H]4[C@@H]3CC[C@]3(C)[C@@H](C5=CC(=O)OC5)CC[C@]43O)C2)O[C@@H](C)[C@@H]1O
inactive: endpoint: mean survival time, dose: 0.5 mg/kg/injection, schedule: Q01DX001 (ip), vehicle: saline 105 % of control | endpoint: mean survival time, dose: 1.0 mg/kg/injection, schedule: Q01DX001 (ip), vehicle: saline 105 % of control | endpoint: mean survival time, dose: 2.0 mg/kg/injection, schedule: Q01DX001 (ip), vehicle: saline 108 % of control | endpoint: mean survival time, dose: 4.0 mg/kg/injection, schedule: Q01DX001 (ip), vehicle: saline 109 % of control
